Test results: patent publication US7807713B2, “Pan-antagonists for the androgen receptor and androgen associated with anti-androgen withdrawal” (University of Delaware, priority 2006, dated 2010)
Changes are numbered by the printed parent chain. Where two headings read alike, the source gives them in different places.

Columns and labels:
Format in all cases: cell-based
hAR(W741C) = biological target: T1, hAR(W741C) (Homo sapiens, UniProt P10275, W742C); assay: Transcription assay (ARE-luciferase reporter, CV-1 cells), mutant androgen receptor W741C
T1 construct: expressed in transfected cells; host or cells: CV-1
T1 sequence (P10275 1-920 W742C): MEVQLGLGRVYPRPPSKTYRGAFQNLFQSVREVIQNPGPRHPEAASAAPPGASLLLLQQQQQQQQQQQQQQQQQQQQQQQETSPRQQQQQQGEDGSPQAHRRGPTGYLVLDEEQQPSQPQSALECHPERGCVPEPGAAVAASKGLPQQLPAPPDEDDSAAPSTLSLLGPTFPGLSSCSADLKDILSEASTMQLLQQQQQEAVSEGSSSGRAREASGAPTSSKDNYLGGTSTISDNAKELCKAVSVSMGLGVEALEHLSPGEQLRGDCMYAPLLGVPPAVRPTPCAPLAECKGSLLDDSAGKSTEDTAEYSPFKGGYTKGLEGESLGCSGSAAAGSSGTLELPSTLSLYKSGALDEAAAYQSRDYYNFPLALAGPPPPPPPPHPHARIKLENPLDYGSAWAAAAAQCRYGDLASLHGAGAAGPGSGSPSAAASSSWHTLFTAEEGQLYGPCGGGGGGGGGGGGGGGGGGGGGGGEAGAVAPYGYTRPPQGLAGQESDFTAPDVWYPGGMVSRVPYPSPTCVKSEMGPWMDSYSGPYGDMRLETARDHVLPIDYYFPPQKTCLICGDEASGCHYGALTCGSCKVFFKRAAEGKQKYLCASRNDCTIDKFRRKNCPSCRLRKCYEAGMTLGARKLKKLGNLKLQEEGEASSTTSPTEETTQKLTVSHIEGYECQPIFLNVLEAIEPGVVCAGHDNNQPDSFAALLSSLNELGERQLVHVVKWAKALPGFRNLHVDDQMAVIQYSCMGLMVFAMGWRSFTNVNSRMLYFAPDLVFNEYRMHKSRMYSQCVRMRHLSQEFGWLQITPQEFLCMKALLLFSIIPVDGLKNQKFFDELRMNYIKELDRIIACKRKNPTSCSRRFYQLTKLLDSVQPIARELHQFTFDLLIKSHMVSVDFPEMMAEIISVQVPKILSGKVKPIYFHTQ
Method: (§1) Twenty-four hours prior to transfection, CV-1 cells were seeded at a density of 45,000 cells per well in 24-well cell culture plates and grown in phenol red free Dulbecco's Modified Eagle Medium (DMEM) supplemented with 10% cosmic calf serum (CCS). ARE-luciferase reporter and Renilla-Luc as the internal standard and a […] expression vector encoding the wild-type androgen receptor or mutant androgen receptor were transfected with Lipofectamine (Invitrogen) following manufacturer's protocol. Five hours after transfection, media was added containing the appropriate concentrations of ligands. The cells were allowed to incubate for 38 hours before harvesting by passive lysis buffer. Cell extracts were immediately assayed using the Dual Luciferase Assay (Promega).

hAR(T877A) = biological target: T2, hAR(T877A) (Homo sapiens, UniProt P10275, T878A); assay: Transcription assay (ARE-luciferase reporter, CV-1 cells), mutant androgen receptor T877A
T2 construct: expressed in transfected cells; host or cells: CV-1
T2 sequence (P10275 1-920 T878A): T1 sequence (P10275 1-920 W742C) with C742W, T878A
Method: as §1

hAR(wt) = biological target: T3, hAR(wt) (Homo sapiens, UniProt P10275); assay: Transcription assay (ARE-luciferase reporter, CV-1 cells), wild-type androgen receptor
T3 construct: expressed in transfected cells; host or cells: CV-1
T3 sequence (P10275 1-920): T1 sequence (P10275 1-920 W742C) with C742W
Method: as §1

LNCaP cells = assay: Cell proliferation assay (CyQuant), R1881 induced; conditions: 8 day ligand treatment ± R1881, FIG. 9
Text: FIG. 9. LNCaP cell proliferation (CyQuant) after 8 day ligand treatment±R1881. Relative Fluorescence±SEM. (R1881±ligand; P<0.05, one-way ANOVA).
Further evidence that formulae such as PLM1 can act to limit androgen dependent proliferation of prostate cells was obtained by cell proliferation assays as determined using CyQuant® assays, according to manufacturer's instructions (invitrogen).

Molecule: 3-(2-phenylphenylsulfonyl)-N-(4-cyano-3-(trifluoromethyl)phenyl)-2-hydroxy-2-methylpropanamide [PLM4]
- EC50 (hAR(W741C); half maximal activation of reporter gene expression (agonism), '—' = no effect, read-out: hAR(W741C) EC50): 33 ± 9.8 nM

Molecule: CC(O)(CS(=O)(=O)c1ccccc1Cc1ccccc1O)C(=O)Nc1ccc(C#N)c(C(F)(F)F)c1 (stereo not drawn) [PAN11, N-(4-cyano-3-(trifluoromethyl)phenyl)-2-hydroxy-3-(2-(2-hydroxybenzyl)phenylsulfonyl)-2-methylpropanamide]
- EC50 (hAR(T877A)): 1.9 nM

Molecule: CC(O)(CS(=O)(=O)c1ccccc1Cc1cccc(O)c1)C(=O)Nc1ccc(C#N)c(C(F)(F)F)c1 (stereo not drawn) [PAN21, N-(4-cyano-3-(trifluoromethyl)phenyl)-2-hydroxy-3-(2-(3-hydroxybenzyl)phenylsulfonyl)-2-methylpropanamide]
- EC50 (hAR(wt)): 1.8 nM

Molecule: CC(O)(CS(=O)(=O)c1cccc2ccccc12)C(=O)Nc1ccc(C#N)c(C(F)(F)F)c1 (stereo not drawn) [PLM1, N-(4-cyano-3-(trifluoromethyl)phenyl)-2-hydroxy-2-methyl-3-(naphthalen-1-ylsulfonyl)propanamide]
- inhibiting androgen (R1881) induced proliferation of LNCaP cells (LNCaP cells): at least as potent as biclutamide itself

Molecule: CC(O)(CS(=O)(=O)c1cccc(Cc2ccccc2)c1)C(=O)Nc1ccc(C#N)c(C(F)(F)F)c1 (stereo not drawn) [PLM3, 3-(3-benzylphenylsulfonyl)-N-(4-cyano-3-(trifluoromethyl)phenyl)-2-hydroxy-2-methylpropanamide]
- EC50 (hAR(W741C)): 630 ± 67 nM

Molecule: CC(O)(CS(=O)(=O)c1ccc(Br)c2ccccc12)C(=O)Nc1ccc(C#N)c(C(F)(F)F)c1 (stereo not drawn) [PLM9, 3-(1-bromonaphthalen-4-ylsulfonyl)-N-(4-cyano-3-(trifluoromethyl)phenyl)-2-hydroxy-2-methylpropanamide]
- EC50 (hAR(T877A)): 426 ± 72 nM
